Measured values published in US7713994B2 (Wyeth LLC, priority 2005, dated 2010).

Experiments:
cyclin D1/cdk 4 enzyme = target: T1, cyclin D1/cdk 4 enzyme (Homo sapiens, UniProt P11802); experiment: CDK4 ELISA kinase assay (phospho-Rb ser 795 detection); type: biochemical; settings: In Vitro Enzyme Assay, cyclin D1/cdk 4, read-out: CDK4 IC50
T1 construct: made in house; host or cells: Sf9 insect cells, recombinant baculovirus
Procedure, shortened: (§1)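 GST-Rb C-terminal fragment coated on plates; partially purified Sf9-expressed cyclin D1/CDK4, cyclin E/CDK2 or cyclin B/CDK1 with 200 μM ATP, pH 7.5 HEPES/MgCl2 buffer, 1 h at 30 °C; screen compound final 10 μg/ml. Phospho-Rb Ser795 detected by antibody ELISA (TMB, A450); % of control, IC50 from background-subtracted inhibition curves.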

cyclin E/CDK2 enzyme = target: T2, cyclin E/CDK2 enzyme (Homo sapiens, UniProt P24941); experiment: CDK2 ELISA kinase assay (phospho-Rb ser 795 detection); type: biochemical; settings: In Vitro Enzyme Assay, cyclin E/CDK2, read-out: CDK2 IC50
T2 construct: made in house; host or cells: Sf9 insect cells, recombinant baculovirus
Procedure, shortened: as §1

cyclin B/CDK1 enzyme = target: T3, cyclin B/CDK1 enzyme (Homo sapiens, UniProt P06493); experiment: CDK1 ELISA kinase assay (phospho-Rb ser 795 detection); type: biochemical; settings: In Vitro Enzyme Assay, cyclin B/CDK1, read-out: CDK1 IC50
T3 construct: purchased New England BioLabs; host or cells: Sf9 insect cells, recombinant baculovirus
Procedure, shortened: as §1

BT474 = experiment: Cytotoxicity assay (SRB), BT474; type: cell-based; settings: Homo sapiens, BT-474, 144 h, BT474 cells, 6 days, SRB; read-out: In Vitro Cellular Activity IC50 BT474
Procedure, shortened: (§2)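 Cells seeded overnight at 37 °C, 7% CO2 (BT474 12000, HCT-116 4000, LoVo and MCF-7 6000 cells/well) in RPMI 1640 with 5% FBS, then exposed to compound dilutions for 3 days (BT474 6 days). Survival versus untreated controls by TCA fixation and SRB staining, absorbance 540 nm.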

HCT-116 = experiment: Cytotoxicity assay (SRB), HCT-116; type: cell-based; settings: Homo sapiens, HCT-116, 72 h, HCT116 cells, 3 days, SRB; read-out: In Vitro Cellular Activity IC50 HCT116
Procedure, shortened: as §2

LoVo = experiment: Cytotoxicity assay (SRB), LoVo; type: cell-based; settings: Homo sapiens, LoVo, 72 h, LoVo cells, 3 days, SRB; read-out: In Vitro Cellular Activity IC50 LOVO
Procedure, shortened: as §2

MCF-7 = experiment: Cytotoxicity assay (SRB), MCF-7; type: cell-based; settings: Homo sapiens, MCF7, 72 h, MCF-7 cells, 3 days, SRB; read-out: In Vitro Cellular Activity IC50 MCF-7
Procedure, shortened: as §2

T1 sequence (P11802 whole entry, species assumed): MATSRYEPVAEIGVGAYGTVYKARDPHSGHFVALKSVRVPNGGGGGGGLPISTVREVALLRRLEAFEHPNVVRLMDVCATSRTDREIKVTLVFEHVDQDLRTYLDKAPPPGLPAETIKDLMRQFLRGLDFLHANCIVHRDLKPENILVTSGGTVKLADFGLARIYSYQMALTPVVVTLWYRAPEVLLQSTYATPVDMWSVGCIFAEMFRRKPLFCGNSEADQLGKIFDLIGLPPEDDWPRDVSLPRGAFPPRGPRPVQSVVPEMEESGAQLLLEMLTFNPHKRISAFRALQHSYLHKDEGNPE
T1 sequence (P24385 whole entry partner, species assumed): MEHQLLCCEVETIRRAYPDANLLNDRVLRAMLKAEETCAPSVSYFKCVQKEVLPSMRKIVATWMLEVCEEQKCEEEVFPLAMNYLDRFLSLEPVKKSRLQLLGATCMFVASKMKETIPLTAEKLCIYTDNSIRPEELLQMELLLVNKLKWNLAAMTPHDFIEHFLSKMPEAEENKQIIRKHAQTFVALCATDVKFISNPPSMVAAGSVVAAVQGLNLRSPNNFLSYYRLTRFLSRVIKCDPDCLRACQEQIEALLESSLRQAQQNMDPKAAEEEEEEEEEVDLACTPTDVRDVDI
T3 sequence (P06493 whole entry): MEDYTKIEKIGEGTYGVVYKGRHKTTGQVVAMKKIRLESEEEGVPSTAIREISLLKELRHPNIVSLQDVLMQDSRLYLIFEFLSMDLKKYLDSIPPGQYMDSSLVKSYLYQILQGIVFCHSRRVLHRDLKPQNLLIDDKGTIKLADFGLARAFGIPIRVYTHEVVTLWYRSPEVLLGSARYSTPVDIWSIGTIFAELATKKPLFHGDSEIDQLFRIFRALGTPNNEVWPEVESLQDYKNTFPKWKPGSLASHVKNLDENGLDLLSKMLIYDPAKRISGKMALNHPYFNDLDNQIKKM
T3 sequence (P14635 whole entry partner): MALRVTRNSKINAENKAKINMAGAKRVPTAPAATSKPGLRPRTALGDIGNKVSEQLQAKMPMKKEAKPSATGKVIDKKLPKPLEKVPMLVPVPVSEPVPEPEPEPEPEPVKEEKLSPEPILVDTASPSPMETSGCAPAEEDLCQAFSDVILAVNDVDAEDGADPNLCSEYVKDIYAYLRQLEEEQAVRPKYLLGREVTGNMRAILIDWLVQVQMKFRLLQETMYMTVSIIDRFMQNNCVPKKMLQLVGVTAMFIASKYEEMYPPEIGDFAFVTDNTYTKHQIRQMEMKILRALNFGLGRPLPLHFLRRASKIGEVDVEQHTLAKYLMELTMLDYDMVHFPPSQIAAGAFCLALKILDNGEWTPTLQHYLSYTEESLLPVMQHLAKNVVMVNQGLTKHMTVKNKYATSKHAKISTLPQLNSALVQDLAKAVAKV

Structure (SMILES) | IC50 (cyclin D1/cdk 4 enzyme) [µM] | IC50 (cyclin E/CDK2 enzyme) [µM] | IC50 (cyclin B/CDK1 enzyme) [µM] | IC50 (BT474) [µM] | IC50 (HCT-116) [µM] | IC50 (LoVo) [µM] | IC50 (MCF-7) [µM] | melting point
C[C@@H]1CN(c2ccc(N/C=C3\C(=O)NC(=O)c4ccc(Br)cc43)nc2)C[C@H](C)N1 [Example 469, (4Z)-6-Bromo-4-[({5-[(3R,5S)-3,5-dimethylpiperazin-1-yl]pyridin-2-yl}amino)methylene]isoquinoline-1,3(2H,4H)-dione] | 2.2 | 17.6 | 2.7 | 2.2 | 0.8 | 1.2 | 2.9 | 245 to 246 °C
CCC(=O)Nc1cnc(CN/C=C2\C(=O)NC(=O)c3ccc(I)cc32)cc1O [Example 470, N-(4-Hydroxy-6-{[(6-iodo-1,3-dioxo-2,3-dihydro-1H-isoquinolin-4-ylidenemethyl)-amino]-methyl}-pyridin-3-yl)-propionamide] | 0.05 | 0.19 | 2.5 | 2 | 20.9 | 19.1 | 37.8 | 210 to 218 °C (dec.)
CCCOc1cn(C)c(CN/C=C2\C(=O)NC(=O)c3ccc(I)cc32)cc1=O [Example 471, 6-Iodo-4-{[(1-methyl-4-oxo-5-propoxy-1,4-dihydro-pyridin-2-ylmethyl)-amino]-methylene}-4H-isoquinoline-1,3-dione] | 0.007 | 28.7 | > 50 | 21.9 | > 50 | > 50 | > 50 | 176 to 196 °C (dec.)
CN1CCN(c2ccc(N/C=C3\C(=O)NC(=O)c4ccc(-c5cccn5C)cc43)cn2)CC1 [Example 474, (4Z)-4-({[6-(4-Methylpiperazin-1-yl)pyridin-3-yl]amino}methylene)-6-(1-methyl-1H-pyrrol-2-yl)isoquinoline-1,3(2H,4H)-dione] | 4.2 | > 50 | > 50 | 7.4 | 3.5 | 3.8 | 4 | 216 to 217 °C
CN1CCN(c2ccc(N/C=C3\C(=O)NC(=O)c4ccc(-c5ccoc5)cc43)nn2)CC1 [Example 476, (4Z)-6-(3-Furyl)-4-({[6-(4-methylpiperazin-1-yl)pyridazin-3-yl]amino}methylene)isoquinoline-1,3(2H,4H)-dione] | 0.82 | > 50 | 24.7 | 2.6 | 1.9 | 3.1 | 4.5 | 275 to 276 °C
CN1CCN(c2ccc(N/C=C3\C(=O)NC(=O)c4ccc(Br)cc43)nn2)CC1 [Example 477, (4Z)-6-Bromo-4-({[6-(4-methylpiperazin-1-yl)pyridazin-3-yl]amino}methylene)isoquinoline-1,3(2H,4H)-dione] | 13.8 | 40.6 | 24.2 | 4.1 | 1.6 | 3.9 | 2.3 | 245 to 246 °C
COC[C@@H]1CCCN1Cc1ccc(N/C=C2\C(=O)NC(=O)c3ccc(I)cc32)nc1 [Example 478, (4Z)-6-Iodo-4-{[(5-{[(2S)-2-(methoxymethyl)pyrrolidin-1-yl]methyl}pyridin-2-yl)amino]methylene}isoquinoline-1,3(2H,4H)-dione] | 17.6 | > 50 | > 50 | > 50 | 24.2 | 46.8 | 44.8 | 185 to 186 °C
O=C1NC(=O)c2ccc(I)cc2/C1=C/Nc1ccc(CN2CCC(CCO)CC2)cc1 [Example 480, (4Z)-4-{[(4-{[4-(2-Hydroxyethyl)piperidin-1-yl]methyl}phenyl)amino]methylene}-6-iodoisoquinoline-1,3(2H,4H)-dione] | 0.21 | 26.5 | > 50 | 1 | 3.3 | 4.5 | 1.6 | 223 to 224 °C
CCN1CCN(c2ccc(N/C=C3\C(=O)NC(=O)c4ccc(-c5ccoc5)cc43)nc2)CC1 [Example 481, (4Z)-4-({[5-(4-Ethylpiperazin-1-yl)pyridin-2-yl]amino}methylene)-6-(3-furyl)isoquinoline-1,3(2H,4H)-dione] | 0.19 | > 50 | > 50 | 0.6 | 0.88 | 0.96 | 1.1 | 256 to 257 °C
O=C1NC(=O)c2ccc(-c3ccc(F)cc3)cc2/C1=C/Nc1ccc(CN2CCC(CCO)CC2)cc1 [Example 482, (4Z)-6-(4-Fluorophenyl)-4-{[(4-{[4-(2-hydroxyethyl)piperidin-1-yl]methyl}phenyl)amino]methylene}isoquinoline-1,3(2H,4H)-dione] | 0.12 | > 50 | > 50 | 1.3 | 2.5 | 2.7 | 0.84 | 202 to 203 °C
CC(C)N1CCN(c2ccc(N/C=C3\C(=O)NC(=O)c4ccc(-c5ccoc5)cc43)nc2)CC1 [Example 488, (4Z)-6-(3-Furyl)-4-({[5-(4-isopropylpiperazin-1-yl)pyridin-2-yl]amino}methylene)isoquinoline-1,3(2H,4H)-dione] | 0.43 | > 50 | > 50 | 0.96 | 3.16 | 2.41 | 2.27 | 278 to 279 °C
O=C1NC(=O)c2ccc(Br)cc2/C1=C/Nc1ccc(CN2CCC(CCO)CC2)cc1 [Example 489, (4Z)-6-Bromo-4-{[(4-{[4-(2-hydroxyethyl)piperidin-1-yl]methyl}phenyl)amino]methylene}isoquinoline-1,3(2H,4H)-dione] | 1.3 | > 50 | > 50 | 6.25 | 4.04 | 4.59 | 3.43 | 200 to 201 °C
CCCOc1cnc(CN/C=C2\C(=O)NC(=O)c3ccc(-c4ccco4)cc32)cc1O [Example 502, 6-Furan-2-yl-4-{[(4-hydroxy-5-propoxy-pyridin-2-ylmethyl)-amino]-methylene}-4H-isoquinoline-1,3-dione] | < 0.005 | 2.8 | 20.2 | 0.69 | 1.4 | 0.96 | 1.2 | 288 to 290 °C (dec.)
CN1CCN(c2cnc(N/C=C3\C(=O)NC(=O)c4ccc(I)cc43)cn2)CC1 [Example 507, (4Z)-6-Iodo-4-({[5-(4-methylpiperazin-1-yl)pyrazin-2-yl]amino}methylene)isoquinoline-1,3(2H,4H)-dione] | 13.7 | 16 | 3 | 9.5 | 3.1 | 18 | 11 | 238 to 239 °C
